In patent publication US20060040871A1, “Bacterial transforming agent” (priority 2003, published 2006):
Where two headings read alike, the source gives them in different places.

Experiments:
[1] = tested on: vancomycin- and gentamicin-resistant Enterococcus faecium; test: microbe, parasite or virus in culture; assay type: cell-based; conditions: for MIC of vancomycin: GBE 0.02M
Description: The agents of the present invention are not limited to the reversal of resistance in Staphylococcus. The test strains in Table 5 are patient-isolates of vancomycin- and gentamicin-resistant Enterococcus faecium. At the time of isolation, they were commonly resistant to all clinically useable antimicrobial agents.

MRSA [2] = test: MIC of methicillin for MRSA isolates grown with glycine or GBE (Table 1); assay type: cell-based, Staphylococcus aureus; conditions: for MIC of methicillin: GBE 0.001M (0.2%)
MRSA [3] = assay type: cell-based, Staphylococcus aureus; conditions: GBE 0.00075M [0.15%]
Description: Stored frozen plasma was pooled from five subjects.
Human plasma may bind or otherwise inactivate foreign substances and good activity in plasma is indicative of good in vivo activity.

MRSA [4] = test: Screening on Isosensitest agar with incorporated BTA and 10 μg methicillin discs; assay type: cell-based, Staphylococcus aureus; conditions: VRE and MRSA
Description: To find substances related to GBE that might have increased potency, various substances, including those with additional glycine moieties and benzylates, have been screened. Screening was carried out using Isosensitest agar (Oxoid, UK) into which various levels of potential BTAs were incorporated at levels between 0.01 and 1.0%. The agar with incorporated BTA was then used in the manner of a standard antibiotic sensitivity test using 10 μg methicillin discs. The test organism was inoculated onto the agar surface at a concentration suitable to achieve confluent growth after 18 hours incubation at 30° C. After incubation, zone diameters were compared with that achieved by the control plate (Isosensitest alone) for each test organism.

MRSA [5] = assay type: cell-based, Staphylococcus aureus; conditions: agents not hydrolysed by staphylococcal β-lactamase

SMILES: NCC(=O)OCc1ccccc1 [GBE, Glycine Benzyl Ester]
- strains tested with complete transformation (target MIC of vancomycin 2 mg/l) ([1]; 0.02 M GBE, Table 5): 100%
- MIC of vancomycin ([1]; ATCC 29212): 1 µg/mL
- MIC of vancomycin ([1]; BBC): 2 µg/mL
- MIC of vancomycin ([1]; E254): 2 µg/mL
- MIC of vancomycin ([1]; E267): 2 µg/mL
- MIC of vancomycin ([1]; E271): 2 µg/mL
- MIC of vancomycin ([1]; E285): 2 µg/mL
- MIC of vancomycin ([1]; E297): 2 µg/mL
- MIC of vancomycin ([1]; GBC): 2 µg/mL
- MIC of vancomycin ([1]; S226): 2 µg/mL
- MIC of vancomycin ([1]; S227): 2 µg/mL
- MIC of vancomycin ([1]; S283): 2 µg/mL
- MIC of vancomycin ([1]; S302): 2 µg/mL
- MIC of vancomycin ([1]; S315): 1 µg/mL
- MIC of vancomycin ([1]; S317): 2 µg/mL
- MIC of vancomycin ([1]; S319): 2 µg/mL
- MIC of vancomycin ([1]; S333): 2 µg/mL
- MIC of vancomycin ([1]; S337): 2 µg/mL
- MIC of vancomycin ([1]; S393): 2 µg/mL
- MIC of vancomycin ([1]; S497): 1 µg/mL
- MIC of vancomycin ([1]; S556): 1 µg/mL
- MIC of vancomycin ([1]; WBC): 2 µg/mL
- strains tested with complete transformation (MRSA [2]; 0.02 M glycylbenzyl ester, said of Table 1): 100%
- MIC of methicillin (MRSA [2]; CD40 (EMRSA-1)): 2 µg/mL
- MIC of methicillin (MRSA [2]; DS09 (EMRSA-1)): 2 µg/mL
- MIC of methicillin (MRSA [2]; E15-97 (EMRSA-15)): 2 µg/mL
- MIC of methicillin (MRSA [2]; E16-96 (EMRSA-16)): 2 µg/mL
- MIC of methicillin (MRSA [2]; JF1-32 (EMRSA-1)): 2 µg/mL
- MIC of methicillin (MRSA [2]; L265): 2 µg/mL
- MIC of methicillin (MRSA [2]; L266): 2 µg/mL
- MIC of methicillin (MRSA [2]; L267): 2 µg/mL
- MIC of methicillin (MRSA [2]; L268): 2 µg/mL
- MIC of methicillin (MRSA [2]; L269): 1 µg/mL
- MIC of methicillin (MRSA [2]; L270): 1 µg/mL
- MIC of methicillin (MRSA [2]; L271): 2 µg/mL
- MIC of methicillin (MRSA [2]; L272): 1 µg/mL
- MIC of methicillin (MRSA [2]; L273): 1 µg/mL
- MIC of methicillin (MRSA [2]; L274): 2 µg/mL
- MIC of methicillin (MRSA [2]; L275): 2 µg/mL
- MIC of methicillin (MRSA [2]; L276): 2 µg/mL
- MIC of methicillin (MRSA [2]; L277): 2 µg/mL
- MIC of methicillin (MRSA [2]; L278): 4 µg/mL
- MIC of methicillin (MRSA [2]; L279): 2 µg/mL
- MIC of methicillin (MRSA [2]; L280): 2 µg/mL
- MIC of methicillin (MRSA [2]; L281): 2 µg/mL
- MIC of methicillin (MRSA [2]; L282): 2 µg/mL
- MIC of methicillin (MRSA [2]; L283): 2 µg/mL
- MIC of methicillin (MRSA [2]; L284): 2 µg/mL
- MIC of methicillin (MRSA [2]; L285): 2 µg/mL
- MIC of methicillin (MRSA [2]; L286): 2 µg/mL
- MIC of methicillin (MRSA [2]; L287): 2 µg/mL
- MIC of methicillin (MRSA [2]; L288): 2 µg/mL
- MIC of methicillin (MRSA [2]; L289): 2 µg/mL
- MIC of methicillin (MRSA [2]; L290): 2 µg/mL
- MIC of methicillin (MRSA [2]; L291): 2 µg/mL
- MIC of methicillin (MRSA [2]; L292): 2 µg/mL
- MIC of methicillin (MRSA [2]; L293): 2 µg/mL
- MIC of methicillin (MRSA [2]; L294): 2 µg/mL
- MIC of methicillin (MRSA [2]; MC01 (EMRSA-1)): 2 µg/mL
- MIC of methicillin (MRSA [2]; NCTC 12493): 0.015 µg/mL
- MIC of methicillin (MRSA [2]; PS3-32 (EMRSA-1)): 2 µg/mL
- MIC of methicillin (MRSA [2]; SN31 (EMRSA-1)): 2 µg/mL
- MIC of methicillin (MRSA [2]; ST11 (EMRSA-1)): 2 µg/mL
- MIC of methicillin (MRSA [2]; SW2-32 (EMRSA-1)): 2 µg/mL
- effect on sensitivity to methicillin compared with glycine (MRSA [2]; Table 1): increased sensitivity to methicillin to a much greater extent than glycine
- MIC of methicillin (MRSA [3]; 5518 (EMRSA-1), +1% human plasma): 4 µg/mL
- MIC of methicillin (MRSA [3]; 5518 (EMRSA-1), no plasma): 2 µg/mL
- MIC of methicillin (MRSA [3]; L277, +1% human plasma): 8 µg/mL
- MIC of methicillin (MRSA [3]; L277, no plasma): 4 µg/mL
- MIC of methicillin (MRSA [3]; L278, +1% human plasma): 16 µg/mL
- MIC of methicillin (MRSA [3]; L278, no plasma): 8 µg/mL
- MIC of methicillin (MRSA [3]; L279, +1% human plasma): 16 µg/mL
- MIC of methicillin (MRSA [3]; L279, no plasma): 4 µg/mL
- MIC of methicillin (MRSA [3]; L280, +1% human plasma): 8 µg/mL
- MIC of methicillin (MRSA [3]; L280, no plasma): 4 µg/mL
- MIC of methicillin (MRSA [3]; L281, +1% human plasma): 8 µg/mL
- MIC of methicillin (MRSA [3]; L281, no plasma): 4 µg/mL
- MIC of methicillin (MRSA [3]; L282, +1% human plasma): 16 µg/mL
- MIC of methicillin (MRSA [3]; L282, no plasma): 4 µg/mL
- MIC of methicillin (MRSA [3]; L283, +1% human plasma): 16 µg/mL
- MIC of methicillin (MRSA [3]; L283, no plasma): 4 µg/mL
- MIC of methicillin (MRSA [3]; L284, +1% human plasma): 8 µg/mL
- MIC of methicillin (MRSA [3]; L284, no plasma): 2 µg/mL
- MIC of methicillin (MRSA [3]; L285, +1% human plasma): 16 µg/mL
- MIC of methicillin (MRSA [3]; L285, no plasma): 4 µg/mL
- MIC of methicillin (MRSA [3]; L286, +1% human plasma): 8 µg/mL
- MIC of methicillin (MRSA [3]; L286, no plasma): 4 µg/mL
- MIC of methicillin (MRSA [3]; L287, +1% human plasma): 16 µg/mL
- MIC of methicillin (MRSA [3]; L287, no plasma): 4 µg/mL
- MIC of methicillin (MRSA [3]; L288, +1% human plasma): 16 µg/mL
- MIC of methicillin (MRSA [3]; L288, no plasma): 2 µg/mL
- MIC of methicillin (MRSA [3]; L289, +1% human plasma): 16 µg/mL
- MIC of methicillin (MRSA [3]; L289, no plasma): 4 µg/mL
- MIC of methicillin (MRSA [3]; L290, +1% human plasma): 8 µg/mL
- MIC of methicillin (MRSA [3]; L290, no plasma): 4 µg/mL
- MIC of methicillin (MRSA [3]; L291, +1% human plasma): 16 µg/mL
- MIC of methicillin (MRSA [3]; L291, no plasma): 4 µg/mL
- MIC of methicillin (MRSA [3]; L292, +1% human plasma): 32 µg/mL
- MIC of methicillin (MRSA [3]; L292, no plasma): 4 µg/mL
- MIC of methicillin (MRSA [3]; L293, +1% human plasma): 8 µg/mL
- MIC of methicillin (MRSA [3]; L293, no plasma): 2 µg/mL
- MIC of methicillin (MRSA [3]; L294, +1% human plasma): 8 µg/mL
- MIC of methicillin (MRSA [3]; L294, no plasma): 2 µg/mL
- activity against VRE and MRSA relative to glycylglycine benzyl ester (MRSA [4]): greater activity
- sensitivity of MRSA to other β-lactam agents in the presence of GBE (MRSA [5]): sensitive to cephalosporins and other β-lactam agents
